Measured values reported in patent US5541174A, “Analgesic method” (priority 1995, dated 1996).
“And” between values parts separate entries of the source, which are not always exact repeats. Identical values can stand only once.

Assays:
[1] = test system: acetic acid-induced writhing mouse pain model; test: Comparison/potentiation of analgesic activity with morphine in the acetic acid-induced writhing mouse pain model; type: in vivo
Protocol: (§1) Groups of 10 ICR male mice (Taisho Pharmaceutical Co. Research Center) were used to study each dose of every compound. Ligands or complexes were administered orally or subcutaneously in 0.1 ml of vehicle per 10 g of body weight 30 minutes before the intrapertioneal injection of 0.1 ml of 0.7% acetic acid solution per 10 g of body weight. Number of writhes were counted for each mouse during a period of 10 to 20 min after acetic acid injection. Inhibitory percent was calculated by comparison with the number of writhes in the non-treated control, vehicle-treated, and acetic acid-injected group. The ED50 value and 95% confidence limits were calculated from the inhibitory percent by the method of Litchfield and Wilcoxon.

[2] = test system: acetic acid-induced writhing mouse pain model; test: Naloxone reversal of analgesia in the acetic acid-induced writhing mouse pain model; type: in vivo; settings: for ED50: p.o.
Protocol: as §1
(§2) All drugs were suspended with 5% gum arabic in saline solution or wetted with enough propylene glycol to give a final concentration of 4% propylene glycol and the wetted solid suspended in 1.4% polyvinyl alcohol in saline.
NaloxoneHCL (3 umol/kg. i.v., in saline, Endo Lab.) was administered 5
min. before acetic acid injection.

[3] = test system: acetic acid induced writhing in mice; test: Acetic acid-induced writhing test; type: in vivo, ICR male mice
[4] = test system: adjuvant-induced arthritic pain in rats; test: Adjuvant-induced arthritic pain; type: in vivo, male Sprague-Dawley rats
Procedure, shortened: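 Male Sprague-Dawley rats (140-160 g, groups of 5-6) received intradermal tail-base 0.5 mg heat-killed Mycobacterium butyricum in paraffin oil. Vocalization was scored hourly for 5 h. ED50 with 95% limits by Litchfield-Wilcoxon.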

[5] = test system: acetic acid-induced writhing mouse pain model; test: Measurement of time of peak activity in the acetic acid-induced writhing mouse pain model; type: in vivo; settings: for Inhibition %: 2 umol/kg p.o.
Protocol: as §1, with “Ligands or complexes were administered orally or subcutaneously in 0.1 ml of vehicle per 10 g of body weight 30 minutes before the intrapertioneal injection of 0.1 ml of 0.7% acetic acid solution per 10 g of body weight.” left out
as §2

[6] = oral, 5% gum arabic, 0.006 mmol/kg
[7] = oral, 5% gum arabic, 0.013 mmol/kg

Question: What does the source list for `COc1ccc2c(c1)c(CC(=O)[O-])c(C)n2C(=O)c1ccc(Cl)cc1.COc1ccc2c(c1)c(CC(=O)[O-])c(C)n2C(=O)c1ccc(Cl)cc1.COc1ccc2c(c1)c(CC(=O)[O-])c(C)n2C(=O)c1ccc(Cl)cc1.COc1ccc2c(c1)c(CC(=O)[O-])c(C)n2C(=O)c1ccc(Cl)cc1.[Cu+2].[Cu+2]` [Cu(II)2 (indomethacin)4]?
Answer: % Inhibition ([1]; 0.5 umol/kg, orally): 21%; % Inhibition ([1]; 1.0 umol/kg, orally): 46%; % Inhibition ([1]; 2.0 umol/kg, orally): 54%; potentiation of opioid analgesia ([1]; Table IX): potentiation of opioid analgesia; ED50 ([1]; complex alone, orally): 1.5 µmol/kg; % Inhibition ([2]; 0.5 umol/kg p.o., with Naloxone HCl 3 umol/kg i.v.): 19%; % Inhibition ([2]; 0.5 umol/kg p.o., without naloxone): 43%; % Inhibition ([2]; 1 umol/kg p.o., with Naloxone HCl 3 umol/kg i.v.): 52%; % Inhibition ([2]; 1 umol/kg p.o., without naloxone): 62%; % Inhibition ([2]; 2 umol/kg p.o., with Naloxone HCl 3 umol/kg i.v.): 69%; % Inhibition ([2]; 2 umol/kg p.o., without naloxone): 76%; reduction of induced analgesia by Naloxone ([2]; Table VIII): reduction; ED50 ([2]; with Naloxone HCl 3 umol/kg i.v.): 1.1 µmol/kg; ED50 ([2]; without naloxone): 0.6 µmol/kg; ED50 ([3]; oral, 5% gum arabic in saline): 0.012 mmol/kg; analgesic effectiveness versus parent ligand ([3]; oral, 5% gum arabic in saline): more effective than their parent ligands; % Inhibition [3, 6]: 33%; % Inhibition [3, 7]: 50%; % Inhibition ([3]; oral, 5% gum arabic, 0.025 mmol/kg): 73%; analgesic effectiveness versus parent ligand ([3]; oral, PG-PVA): more effective than their parent ligands; ED50 ([3]; oral, PG-PVA in saline): 0.002 mmol/kg; % Inhibition ([3]; oral, PG-PVA, 0.001 mmol/kg): 38%; % Inhibition ([3]; oral, PG-PVA, 0.002 mmol/kg): 53%; % Inhibition ([3]; oral, PG-PVA, 0.004 mmol/kg): 75%; ED50 ([3]; s.c., PG-PVA in saline): 0.002 mmol/kg and 0.003 mmol/kg; % Inhibition ([3]; s.c., PG-PVA, 0.002 mmol/kg): 34%; % Inhibition ([3]; s.c., PG-PVA, 0.003 mmol/kg): 53%; % Inhibition ([3]; s.c., PG-PVA, 0.006 mmol/kg): 70%; ED50 ([4]; oral, 5% gum arabic in saline): 0.007 mmol/kg; % Inhibition ([4]; oral, 5% gum arabic, 0.003 mmol/kg): 27%; % Inhibition [4, 6]: 47%; % Inhibition [4, 7]: 70%; ED50 ([4]; oral, PG-PVA in saline): 0.002 mmol/kg; % Inhibition ([4]; oral, PG-PVA, 0.001 mmol/kg): 20%; % Inhibition ([4]; oral, PG-PVA, 0.002 mmol/kg): 40%; % Inhibition ([4]; oral, PG-PVA, 0.003 mmol/kg): 87%; ED50 ([4]; s.c., PG-PVA in saline): 0.002 mmol/kg; % Inhibition ([4]; s.c., PG-PVA, 0.001 mmol/kg): 17%; % Inhibition ([4]; s.c., PG-PVA, 0.002 mmol/kg): 43%; % Inhibition ([4]; s.c., PG-PVA, 0.003 mmol/kg): 60%; Inhibition % ([5]; 30 min): 54%; Inhibition % ([5]; 60 min): 49%; Inhibition % ([5]; 120 min): 43%; Inhibition % ([5]; 180 min): 68%; Inhibition % ([5]; 240 min): 33%; duration of analgesic effect ([5]; Table VII): prolonged duration of analgesic effect
